Experimental data taken from patent publication US11845726B2.
Where “and” joins values, the source holds several entries; their conditions need not be identical. Identical values can stand only once. Entries after “also recorded” stand apart in the source; their conditions may differ.

Assays:
5-HT1A receptor = target: T1, 5-HT1A receptor (Homo sapiens, UniProt P08908); experiment: cAMP-Glo assay of 5-HT1A receptor modulation in +5-HT1A and -5-HT1A CHO-K1 cells; assay type: cell-based; details: for cAMP levels / 5-HT1A receptor modulation: forskolin-stimulated +5-HT1A vs -5-HT1A cells
T1 construct: host or cells: CHO-K1 co-expressing Ga15
T1 sequence (P08908 1-422): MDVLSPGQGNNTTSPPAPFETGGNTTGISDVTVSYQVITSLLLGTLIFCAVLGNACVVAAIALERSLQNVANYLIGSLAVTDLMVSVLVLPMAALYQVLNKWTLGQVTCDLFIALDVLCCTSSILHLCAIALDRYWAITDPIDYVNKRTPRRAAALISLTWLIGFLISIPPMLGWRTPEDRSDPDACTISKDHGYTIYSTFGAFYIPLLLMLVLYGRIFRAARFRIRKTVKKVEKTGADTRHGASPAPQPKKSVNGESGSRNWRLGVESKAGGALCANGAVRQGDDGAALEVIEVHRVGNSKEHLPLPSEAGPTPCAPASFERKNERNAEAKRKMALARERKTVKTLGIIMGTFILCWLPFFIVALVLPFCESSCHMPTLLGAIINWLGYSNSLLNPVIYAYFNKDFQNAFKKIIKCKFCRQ

in vitro = in vitro ADME, human; details: for half-life: human
Excerpt: A fundamental evaluation in drug development is the assessment of absorption, distribution, metabolism, excretion, and pharmacokinetics (ADME/PK) (Eddershaw et al., 2000, Drug Discovery Today 5(9): 409-414). […] Drug stability upon exposure to human liver microsomes and liver S9 cellular fractions is a common in vitro assay to approximate in vivo, liver-based drug metabolism (Richardson et al., 2016 Drug Metabolism Letters 10:83-90). First-pass metabolism is also often approximated in vitro using intestinal microsome and cellular S9 fractions (Hatley et al., 2017, Biopharmaceuticals & Drug Disposition, 38(2):155-160). Further, it is well known that human serum, and particularly circulating serum esterases can contribute to systemic drug metabolism (Williams, F M 1987, Pharmacology and Therapeutics, 34:99-109). Many pharmacological agents are classified as prodrugs, as they undergo metabolic transformation in vivo upon administration to release the active drug compound into the systemic compartment (Zawilska J B, et al. 2013, Pharmacological Reports, 65:1-14). Psilocybin, a serotonergic psychedelic agent, is well known prodrug that is metabolized into the psychoactive product, psilocin (Dinis-Oliveira, R J 2017, Drug Metabolism Reviews, 49(1):84-91). To evaluate the capacity of test molecules to similarly serve as prodrugs of psilocin, time-dependent, metabolic stability assays using human AB serum, human intestinal microsomes (HIM), human intestinal S9 fractions (HIS9), human liver microsomes (HLM), human liver S9 fractions (HLS9), human alkaline phosphatase, and porcine esterase were performed. […] Liquid chromatography coupled mass spectrometry (LC-MS) was employed to track the conversion of the test molecules into psilocin. All intestinal and liver fractions and NADPH RapidStart reagent was purchased from Sekisui/XenoTech. Human AB serum was purchased from Sigma. For intestine and liver metabolism assays, 2.5 μM candidate compounds were incubated in 400 μg/ml of each cellular fraction (HLM, HLS9, HIM, or HIS9) in 50 mM potassium phosphate buffer (pH 7.4) containing 3 mM MgCl2 and 1 mM EDTA supplemented with NADPH RapidStart at 37° C. Samples were taken at the start of the assay, and at every 20 minutes for 2 hours. Time-point samples were precipitated with 1:1 volume of acetonitrile to quench the reaction before centrifugation at 4000×g for 20 minutes. Supernatants were analyzed for the presence of candidate prodrugs (parent molecule) and psilocin (the predicted metabolite) using Orbitrap LC-MS (Thermo Scientific) using previously described methods (Menéndez-Perdomo et al., 2021, J. Mass Spectrom., 56: e4683). The serum assays were carried out in 10% human AB serum in 50 mM potassium phosphate buffer (pH 7.4) containing 3 mM MgCl2 and 1 mM EDTA. Bovine alkaline phosphatase assays were carried out using one unit of purified enzyme in 50 mM potassium phosphate buffer (pH 7.4) containing 3 mM MgCl2 and 1 mM EDTA. Porcine esterase assays were carried out using one unit of purified enzyme in 50 mM potassium phosphate buffer (pH 7.4) containing 3 mM MgCl2 and 1 mM EDTA. Assay concentrations (μM) of both parent ‘prodrug’ molecule and psilocin metabolite, as quantified through LC-MS using routine standard curve procedures, were plotted as functions of assay time (minutes). The metabolism rate (T1/2) was determined from the metabolism curve plot using the one phase decay feature of GraphPad PRISM software (Version 9.2.0). The quantity of parent prodrug at time zero was set as 100%.
Positive controls were first tested to ensure that assays were functioning properly.

[1] = In vitro metabolic stability / psilocin release in AB serum; assay type: in vitro ADME, human
Excerpt: A fundamental evaluation in drug development is the assessment of absorption, distribution, metabolism, excretion, and pharmacokinetics (ADME/PK) (Eddershaw et al., 2000, Drug Discovery Today 5(9): 409-414). […] Drug stability upon exposure to human liver microsomes and liver S9 cellular fractions is a common in vitro assay to approximate in vivo, liver-based drug metabolism (Richardson et al., 2016 Drug Metabolism Letters 10:83-90). First-pass metabolism is also often approximated in vitro using intestinal microsome and cellular S9 fractions (Hatley et al., 2017, Biopharmaceuticals & Drug Disposition, 38(2):155-160). Further, it is well known that human serum, and particularly circulating serum esterases can contribute to systemic drug metabolism (Williams, F M 1987, Pharmacology and Therapeutics, 34:99-109). Many pharmacological agents are classified as prodrugs, as they undergo metabolic transformation in vivo upon administration to release the active drug compound into the systemic compartment (Zawilska J B, et al. 2013, Pharmacological Reports, 65:1-14). Psilocybin, a serotonergic psychedelic agent, is well known prodrug that is metabolized into the psychoactive product, psilocin (Dinis-Oliveira, R J 2017, Drug Metabolism Reviews, 49(1):84-91). […] Supernatants were analyzed for the presence of candidate prodrugs (parent molecule) and psilocin (the predicted metabolite) using Orbitrap LC-MS (Thermo Scientific) using previously described methods (Menéndez-Perdomo et al., 2021, J. Mass Spectrom., 56: e4683). […] Assay concentrations (μM) of both parent ‘prodrug’ molecule and psilocin metabolite, as quantified through LC-MS using routine standard curve procedures, were plotted as functions of assay time (minutes). The metabolism rate (T1/2) was determined from the metabolism curve plot using the one phase decay feature of GraphPad PRISM software (Version 9.2.0). The quantity of parent prodrug at time zero was set as 100%. […]

5-HT2A receptor [2] = target: T2, 5-HT2A receptor (Mus musculus, UniProt P35363); experiment: Drug-induced Head Twitch Response (HTR); assay type: in vivo, mice; details: 1 mg/kg i.p., 15-to-30-minute window after administration
T2 construct: tissue Charles River; host or cells: living C57BL/6-Elite mice (neuronal receptor)

HepG2 cells = experiment: PrestoBlue cell viability assay; details: 48 hours
5-HT2A receptor [3] = target: 5-HT2A receptor (Homo sapiens, UniProt P28223); experiment: [3H]ketanserin competition binding assay (SPA)
[4] = Mouse pharmacokinetic (PK) evaluation of drug metabolism to psilocin
GABAA = assay type: cell-based

T2 sequence (P35363 whole entry): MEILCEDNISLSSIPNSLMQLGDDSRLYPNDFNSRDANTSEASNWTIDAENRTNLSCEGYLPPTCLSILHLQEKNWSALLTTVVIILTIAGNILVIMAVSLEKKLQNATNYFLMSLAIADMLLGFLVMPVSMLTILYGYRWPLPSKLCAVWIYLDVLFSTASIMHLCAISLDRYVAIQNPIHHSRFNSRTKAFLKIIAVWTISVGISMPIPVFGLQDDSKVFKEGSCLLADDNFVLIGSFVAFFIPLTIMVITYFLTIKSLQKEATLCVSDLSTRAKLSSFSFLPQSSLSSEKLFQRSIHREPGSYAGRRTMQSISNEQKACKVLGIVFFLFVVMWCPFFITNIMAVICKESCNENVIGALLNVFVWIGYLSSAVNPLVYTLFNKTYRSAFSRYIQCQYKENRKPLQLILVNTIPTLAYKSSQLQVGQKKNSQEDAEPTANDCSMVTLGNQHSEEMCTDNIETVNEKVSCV
5-HT2A receptor (Homo sapiens, UniProt P28223), sequence (P28223 whole entry): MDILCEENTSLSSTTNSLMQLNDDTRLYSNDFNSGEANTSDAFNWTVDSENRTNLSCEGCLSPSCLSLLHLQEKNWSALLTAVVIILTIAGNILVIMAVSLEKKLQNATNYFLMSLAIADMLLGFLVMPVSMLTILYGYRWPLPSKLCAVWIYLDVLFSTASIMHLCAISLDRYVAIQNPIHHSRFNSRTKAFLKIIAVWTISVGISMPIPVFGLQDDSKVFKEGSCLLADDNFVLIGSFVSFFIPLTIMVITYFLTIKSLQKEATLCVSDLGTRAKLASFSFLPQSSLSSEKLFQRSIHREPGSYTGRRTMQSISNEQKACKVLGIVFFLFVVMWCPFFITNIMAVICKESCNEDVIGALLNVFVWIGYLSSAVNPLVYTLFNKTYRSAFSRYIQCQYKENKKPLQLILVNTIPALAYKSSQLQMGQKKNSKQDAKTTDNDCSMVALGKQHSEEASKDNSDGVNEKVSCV

CN(C)CCc1c[nH]c2cccc(OC(=O)OCc3ccccc3)c12 [B(II)]
EC50 at 5-HT1A (5-HT1A receptor; forskolin-stimulated +5-HT1A cells): neither molecule engaged 5-HT1A with sufficient potency to calculate an EC50 value
stability / conversion to psilocin (in vitro; HLM): did not readily dissociate to psilocin
stability / conversion to psilocin (in vitro; HLS9): did not readily dissociate to psilocin
half-life (in vitro; microsomes, pH 7.4): 3.63 h
half-life (in vitro; s9, pH 7.4): 8.95 h
stability / conversion to psilocin [1]: failed completely to dissociate
Head Twitch Response (5-HT2A receptor [2]): elicit head twitching
CD50 (cytotoxicity) (HepG2 cells): 65.9 µM
Ki (5-HT2A receptor [3]): 0.277 µM
time administered compound resides in plasma post-dosing ([4]; 10 mg/kg oral): up to 4 hours

CN(C)CCc1c[nH]c2cccc(OC(=O)SCc3ccccc3)c12 [E(VI)]
cAMP levels / 5-HT1A receptor modulation (5-HT1A receptor): mild receptor modulation at higher ligand concentrations
stability / conversion to psilocin (in vitro; HLM): quickly converted to psilocin
stability / conversion to psilocin (in vitro; HLS9): quickly converted to psilocin
stability / conversion to psilocin [1]: quickly converted to psilocin; also recorded: nearly completely disappears upon in vitro exposure to AB serum
Head Twitch Response (5-HT2A receptor [2]): Elevated incidences of HTR; also recorded: elevated response was observed in mice treated with E(VI) compared to B(II)
IC50 (GABAA; blocker (BL)): 32.2 µM
EC50 (GABAA; opener (OP)): > 100 µM
CD50 (cytotoxicity) (HepG2 cells): 74.5 µM
Ki (5-HT2A receptor [3]): 0.13 µM
administered compound in plasma after i.v. dosing ([4]; 1 mg/kg i.v.): detectable levels of E(VI)
Plasma concentration of the administered compound itself ([4]; 1 mg/kg i.v., 5 min, Mean ± SD): 24.4 ± 30.2 ng/mL
Plasma concentration of the administered compound itself ([4]; 1 mg/kg i.v., 0.25 h, Mean ± SD): 63.3 ± 51.7 ng/mL
Plasma concentration of the administered compound itself ([4]; 1 mg/kg i.v., 0.5 h, Mean ± SD): 7.81 ± 6.17 ng/mL
Plasma concentration of the administered compound itself ([4]; 1 mg/kg i.v., 1 h, Mean ± SD): 4.49 (n = 2) ng/mL
Plasma concentration of the administered compound itself ([4]; 1 mg/kg i.v., 1 h, individual mice): 3.14 ng/mL and No Peak
Plasma concentration of the administered compound itself ([4]; 1 mg/kg i.v., 2 h, Mean ± SD): 0.685 (n = 2) ng/mL
Plasma concentration of the administered compound itself ([4]; 1 mg/kg i.v., 2 h, individual mice): 0.776 ng/mL and No Peak
Plasma concentration of the administered compound itself ([4]; 1 mg/kg i.v., 4 h, individual mice): BLQ (2×) and No Peak
Plasma concentration of the administered compound itself ([4]; 1 mg/kg i.v., 6 h, individual mice): No Peak (2×) and BLQ
Plasma concentration of the administered compound itself ([4]; 1 mg/kg i.v., 8 h, individual mice): No Peak
AUC0-tlast of the administered compound ([4]; 1 mg/kg i.v., Mean ± SD): 0.0197 ± 0.0159 µg·h/mL
AUC0-tlast/Dose of the administered compound ([4]; 1 mg/kg i.v., Mean ± SD): 19.7 ± 15.9 kg·ng·h/mL/mg
AUC0-tlast/Dose of the administered compound ([4]; 1 mg/kg i.v., individual mice): 20.4 kg·ng·h/mL/mg and 35.2 kg·ng·h/mL/mg and 3.40 kg·ng·h/mL/mg
administered compound in plasma ([4]; 1 mg/kg oral): neither B(II) nor E(VI) were detected in plasma
Plasma concentration of psilocin ([4]; 1 mg/kg oral, 8 h, individual mice): BLQ
Plasma concentration of psilocin ([4]; 1 mg/kg oral, 24 h, individual mice): No Peak
Plasma concentration of psilocin ([4]; 3 mg/kg oral, 24 h, individual mice): No Peak (2×) and BLQ
Plasma concentration of psilocin ([4]; 10 mg/kg oral, 24 h, individual mice): BLQ
administered compound in plasma after oral dosing ([4]; oral dosing, any dose): did not yield any detectable levels of E(VI); also recorded: never detected at any timepoint

CN(C)CCc1c[nH]c2cccc(O)c12 [psilocin]
cAMP levels / 5-HT1A receptor modulation (5-HT1A receptor): reduction in cAMP levels
5-HT2A competition binding (5-HT2A receptor [3]; control ligands, [3H]ketanserin competition): binding
